A short description of data set [1]: Distribution coefficient, log D of the compound. The class given is physicochemical. The note with it: octanol/water.
Data set [2] is described as follows: Intrinsic clearance in rat liver microsome measured per mg of protein. The class given is ADME. The note with it: liver microsomes. Background: Liver microsomes are a subcellular fraction often used to study metabolism.
Data set [3] can be described thus: Intrinsic clearance in human liver microsome measured per mg of protein. The class given is ADME. The note with it: liver microsomes.
A short description of data set [4]: Half life in rat at 1 mg/kg, iv. Set-up: dose 1 mg/kg, route intravenous. Particulars: in vivo. The class given is ADME, organism-based.
Data set [5] can be described thus: Cmax in rat at 3 mg/kg, po. The class given is ADME, organism-based. Set-up: dose 3 mg/kg, route oral. Particulars: in vivo.
Data set [6] in a line: Oral bioavailability in rat at 3 mg/kg. The class given is ADME, organism-based. The note with it: in vivo.
Data set [7] is described as follows: Volume of distribution at steady state in rat at 1 mg/kg, iv. The class given is ADME, organism-based. Set-up: dose 1 mg/kg, route intravenous. The note with it: in vivo, read-out: Vdss.
A short description of data set [8]: Half life in rat at 3 mg/kg, po. The class given is ADME, organism-based. Set-up: dose 3 mg/kg, route oral. The note with it: in vivo.
A short description of data set [9]: AUC in rat at 1 mg/kg, iv. The class given is ADME, organism-based. Details: dose 1 mg/kg, route intravenous. The note with it: plasma.
Data set [10] can be described thus: Clearance in rat at 1 mg/kg, iv. The class given is ADME, organism-based. Set-up: dose 1 mg/kg, route intravenous. Particulars: in vivo.
Data set [11] is described as follows: Tmax in rat at 3 mg/kg, po. The class given is ADME, organism-based. Set-up: dose 3 mg/kg, route oral. Particulars: in vivo.
A short description of data set [12]: AUC in rat at 3 mg/kg, po. Particulars: plasma. Set-up: dose 3 mg/kg, route oral. The class given is ADME, organism-based.

One may read the logD as the decadic logarithm of the distribution of all forms, ionised or not, between an organic phase and buffer at a given pH. In general, microsomal CLint refers to a measure of how fast metabolising enzymes remove a compound, apart from limits set by blood flow. `CCCCCCCc1nc(-c2ccc(CNC(=O)[C@H]3NCC[C@@H]3O)cc2)no1` showed a logD in data set [1] of 3.7. Moreover, the microsomal CLint in data set [2] is 60 µL/min/mg; in [3], 45 µL/min/mg.

Broadly, the half-life is the time needed for the level to fall by half in the phase considered. A higher half-life goes with slow decline. The Cmax is the maximum level reached in the sampled fluid or tissue. Broadly, the bioavailability is dose-corrected exposure relative to a reference, in per cent. As usually defined, the AUC is the area under the concentration-time curve, a measure of exposure. Low values mean less exposure, high ones more exposure. One may read the clearance as the rate of elimination divided by the concentration. A higher clearance goes with efficient removal. In general, Tmax refers to the time from dosing to the highest level. `C[C@H](NC(=O)[C@H]1NCC[C@@H]1O)c1ccc(-c2noc(CCC3CCCC3)n2)cc1` had a logD in [1] of 2.9. Besides, the half-life in data set [4] is 4.3 h; in data set [8] it was 7.55 h. This compound also showed a Cmax in data set [5] of 82.5 ng/mL. Besides, the microsomal CLint in data set [2] stood at 49.5 µL/min/mg; in [3] it was 12 µL/min/mg. This compound also displayed a bioavailability in [6] of 17.6%. Moreover, in data set [7], the Vd came to 5.55 L/kg. The AUC was determined as 439 ng·h/mL in [9] and 232 ng·h/mL in data set [12]. In [10], the clearance stood at 37.1 mL/min/kg. For the same compound, in data set [11], the Tmax amounted to 0.33 h.

The compound `C[C@H](NC(=O)[C@H]1NCC[C@@H]1O)c1ccc(-c2noc(CCC3CCCCC3)n2)cc1` had a logD in [1] of 3.6. The values for the microsomal CLint in [2] and in data set [3] were 50.2 µL/min/mg and less than 4.5 µL/min/mg, respectively.

Compound `CC[C@H](NC(=O)[C@H]1NCC[C@@H]1O)c1ccc(-c2noc(CCC3CCCCC3)n2)cc1` registered a logD in [1] of 4.3. For the same compound, the half-life in data set [4] and in data set [8] was 1.64 h each time. The same compound displayed a Cmax in data set [5] of 37.5 ng/mL. Besides, the microsomal CLint is 38.8 µL/min/mg in data set [2] and 10 µL/min/mg in [3]. The bioavailability in [6] is 15.3%. Moreover, the Vd in data set [7] is 7.86 L/kg. Also, the area under the curve (AUC) in data set [9] turned out to be 204 ng·h/mL; in data set [12], 94.8 ng·h/mL. Moreover, the clearance in data set [10] amounted to 81.8 mL/min/kg. Also, the Tmax in data set [11] is 0.75 h.

These data come from ChEMBL document CHEMBL1208743, “Discovery of novel sphingosine kinase-1 inhibitors. Part 2” (Bioorg Med Chem Lett, 2010).
